The source of these data is US7235570B2, “1,4-dihydropyridine and pyridine compounds as calcium channel blockers” (Vittal Mallya Scientific Research, priority 2002, dated 2007).

The experiment addresses T1, T-type calcium channels (α1G) (Homo sapiens, UniProt O43497).
T1 construct: expressed in transfected cells
The experiment is described as follows: T-type calcium channel block, whole-cell voltage clamp in HEK293 cells. In kind it is cell-based. The conditions noted are these: α1G stably expressed in HEK293 cells, step to −30 mV from holding potential −110 mV. The protocol:
T-type calcium channels (α1G) were stably expressed in HEK293 cells and maintained at 37° C. in DMEM. Cells were released from dishes using trypsin and EGTA or Accutase and studied within 4 hours of isolation. Individual cells were placed on the stage of an inverted microscope and patched with pipettes pulled from aluminasilicate glass capillary tubes, which had resistances of 0.8-1.5 Mohm. Currents were recorded using an Axopatch 200 (Axon Instruments, Inc.) and pClamp data acquisition software (8.1). The pipette solution contained (in mM): KCl 130, EGTA 11, HEPES 10, MGATP 5, pH ═7.4. The bath solution contained (in mM): NaCl 140, CaCl2 1, HEPES 10, pH═7.4. Test compounds were diluted into bath solution to the desired concentration (100 nM-10 μM) from a stock solutions (3 or 10 mM in DMSO). Current measurements were made at 20-23° C. Cells were held at −110 mV in order to maximize occupancy in the closed state and depolarized for 100 ms to various potentials. Currents were capacity corrected using 16-64 subthreshold responses (voltage steps of 10 or 20 mV) and leak subtracted, based on linear interpolation between the current at the holding potential and 0 mV. Cells were moved from a control chamber to a chamber with test compound and the effect of the drug was assessed using a voltage clamp protocol that stepped to −30 mV for 100 ms from a holding potential of −110 mV once every 5 s. After each 10-13 minutes, the train protocol was interrupted and a full current voltage relationship obtained. In general for each compound, four cells were studied for a minimum of 13 minutes, two in drug at 500 nM and two at 1 μM. In some cases other concentrations were also studied. Data were analyzed using Matlab (Mathworks, Natick, Mass.). Drug efficacy was estimated using the relationship: Blocked Fraction=[Drug]/(IC50+[Drug])

T1 sequence (O43497 whole entry): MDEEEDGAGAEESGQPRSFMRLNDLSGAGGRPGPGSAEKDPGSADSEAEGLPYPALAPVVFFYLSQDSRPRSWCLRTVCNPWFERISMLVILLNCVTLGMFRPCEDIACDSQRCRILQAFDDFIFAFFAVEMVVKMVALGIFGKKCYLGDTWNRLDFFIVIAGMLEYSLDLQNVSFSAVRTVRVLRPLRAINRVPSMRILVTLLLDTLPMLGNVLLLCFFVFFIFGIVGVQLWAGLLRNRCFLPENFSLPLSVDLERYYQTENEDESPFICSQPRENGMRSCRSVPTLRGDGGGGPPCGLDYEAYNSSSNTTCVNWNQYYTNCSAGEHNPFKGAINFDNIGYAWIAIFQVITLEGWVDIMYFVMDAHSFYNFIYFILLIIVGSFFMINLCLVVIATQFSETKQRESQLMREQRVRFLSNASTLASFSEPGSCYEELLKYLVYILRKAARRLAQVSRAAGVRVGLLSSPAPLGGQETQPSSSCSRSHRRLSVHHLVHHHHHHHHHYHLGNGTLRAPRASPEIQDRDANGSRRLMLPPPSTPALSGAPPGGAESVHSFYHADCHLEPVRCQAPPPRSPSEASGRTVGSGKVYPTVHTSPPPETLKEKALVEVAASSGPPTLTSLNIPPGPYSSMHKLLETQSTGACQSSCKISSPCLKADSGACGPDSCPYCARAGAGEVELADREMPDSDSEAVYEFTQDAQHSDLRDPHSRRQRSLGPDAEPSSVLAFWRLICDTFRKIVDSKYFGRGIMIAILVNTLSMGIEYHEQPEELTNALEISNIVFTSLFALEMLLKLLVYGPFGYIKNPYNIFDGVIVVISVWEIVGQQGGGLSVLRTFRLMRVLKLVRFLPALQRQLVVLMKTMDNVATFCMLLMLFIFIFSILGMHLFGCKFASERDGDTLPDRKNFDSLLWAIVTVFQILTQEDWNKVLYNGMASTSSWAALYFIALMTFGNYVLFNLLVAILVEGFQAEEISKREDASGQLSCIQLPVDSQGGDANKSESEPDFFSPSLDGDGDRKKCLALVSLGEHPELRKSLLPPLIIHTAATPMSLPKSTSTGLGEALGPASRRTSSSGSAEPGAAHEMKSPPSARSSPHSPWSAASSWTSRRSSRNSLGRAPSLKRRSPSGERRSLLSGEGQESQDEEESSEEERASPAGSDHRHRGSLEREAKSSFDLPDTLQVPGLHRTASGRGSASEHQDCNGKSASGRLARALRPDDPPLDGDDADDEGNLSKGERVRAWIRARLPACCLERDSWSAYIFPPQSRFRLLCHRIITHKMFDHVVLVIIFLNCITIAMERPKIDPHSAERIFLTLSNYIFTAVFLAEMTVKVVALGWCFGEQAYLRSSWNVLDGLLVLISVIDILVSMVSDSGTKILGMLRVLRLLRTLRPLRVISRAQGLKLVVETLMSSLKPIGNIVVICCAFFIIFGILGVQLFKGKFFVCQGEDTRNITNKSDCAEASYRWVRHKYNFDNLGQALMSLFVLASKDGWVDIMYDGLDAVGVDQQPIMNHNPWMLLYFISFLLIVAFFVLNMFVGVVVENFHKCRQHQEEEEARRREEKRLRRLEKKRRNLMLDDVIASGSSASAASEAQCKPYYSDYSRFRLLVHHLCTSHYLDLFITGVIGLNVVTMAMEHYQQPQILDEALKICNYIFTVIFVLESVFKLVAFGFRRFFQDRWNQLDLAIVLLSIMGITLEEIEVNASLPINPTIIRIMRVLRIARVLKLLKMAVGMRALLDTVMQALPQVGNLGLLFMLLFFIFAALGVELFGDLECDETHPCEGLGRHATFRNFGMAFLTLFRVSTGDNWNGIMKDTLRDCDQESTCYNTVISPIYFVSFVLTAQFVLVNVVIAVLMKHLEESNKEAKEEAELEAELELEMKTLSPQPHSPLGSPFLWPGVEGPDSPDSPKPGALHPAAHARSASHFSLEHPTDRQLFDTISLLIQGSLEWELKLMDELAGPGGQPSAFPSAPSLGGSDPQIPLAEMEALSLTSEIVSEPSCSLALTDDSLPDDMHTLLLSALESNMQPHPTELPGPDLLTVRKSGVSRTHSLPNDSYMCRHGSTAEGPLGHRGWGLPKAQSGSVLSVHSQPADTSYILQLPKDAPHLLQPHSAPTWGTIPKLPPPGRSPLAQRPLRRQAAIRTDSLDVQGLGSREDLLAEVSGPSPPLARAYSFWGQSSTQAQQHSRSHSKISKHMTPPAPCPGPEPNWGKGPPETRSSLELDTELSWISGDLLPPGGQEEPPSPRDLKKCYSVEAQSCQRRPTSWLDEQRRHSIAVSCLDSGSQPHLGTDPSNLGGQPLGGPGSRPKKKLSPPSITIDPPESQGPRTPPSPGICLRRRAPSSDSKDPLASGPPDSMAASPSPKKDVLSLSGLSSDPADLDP

As to `CCCCCCCCCCCCCCCc1cccc(OC(C)C)c1C1C(C(=O)OC)=C(C)NC(C)=C1C(=O)OC` [DHP-5, dimethyl 1,4-dihydro-4-(2′-isopropoxy-6′-pentadecylphenyl)-2,6-dimethyl-3,5-pyridine dicarboxylate], under “1 μM of comp'd”, the “% of calcium channels blocked” value is 80%.

Regarding `COC(=O)C1=C(C)NC(C)=C(C(=O)OC)C1c1ccccc1[N+](=O)[O-]` [Nifedipine], the “% of calcium channels blocked” value is 0% (500 nM of comp'd) and 15% (1 μM of comp'd).

With `CCCCCCCCCCCCCCCc1cccc(OCC)c1C1C(C(=O)OCC)=C(C)NC(C)=C1C(=O)OC(C)C` (stereo not shown) [DHP-12, ethyl isopropyl 1,4-dihydro-4-(2′-ethoxy-6′-pentadecylphenyl)-2,6-dimethyl-3,5-pyridine dicarboxylate], the “% of calcium channels blocked” value runs as follows: (500 nM of comp'd) 5%; (1 μM of comp'd) 77%.

On to `COCC(=O)O[C@]1(CCN(C)CCCc2nc3ccccc3[nH]2)CCc2cc(F)ccc2[C@@H]1C(C)C` [Mibefradil], for which the “% of calcium channels blocked” value (500 nM of comp'd) stood at 75% and the “% of calcium channels blocked” value (1 μM of comp'd) worked out at 90%.
